Test results as given in patent publication US20190307820A1, “COMPOSITIONS AND METHODS OF USING STAT1/3 INHIBITORS WITH ONCOLYTIC HERPES VIRUS” (priority 2016, published 2019).

How the values were obtained:
[1] = system: G207 in U87 and MG co-culture; test: G207 replication in glioma-microglia co-cultures treated with C16; assay type: cell-based, HSV-1; settings: 0.5 μM of C16
Procedure: FIG. 12B depicts an electrophoresis gel showing total proteins that were harvested from G2O7 infected microglia cells at 24 hours post treatment with either 1 μM of C16, 1 μM of Bay11, or 100 μM of AG. ICP27, ICP4, and […] expression was measured by western blot assay. U87 and MG co-culture were pretreated with 0.5 μM of C16 for 1 hour.
FIG. 12D is a bar graph showing G207 viral replication increasing by 33% in glioma-microglia co-cultures treated with C16.
(§1) U87 (5×104) alone or U87+microglia co-culture (5×104+5×104) or BV2 microglia cells (5×104) alone were seeded into a 24-well plate. After overnight incubation (to allow the cells to attach), cells were pretreated with indicated concentration of NFkB inhibitor, Bay-11 (Santa Cruz, Canada) or an indicated concentration of imidazolo-oxindole derivative C16 (Milipore, Canada) or vehicle for 1-2 hours. The cells were then infected with oHSV-1 (G207 or HrR3) virus at a MOI of 1 in presence of chemical inhibitors for another 2 days. The viruses were harvested and titrated in vero cells by plaque forming assay in 12-well plates by triplicates.
The effects of a PKR inhibitor (C16), a NFkappaB inhibitor (Bay11), and an iNOS inhibitor (aminoguanidine hydrochloride) were tested on G207 replication in BV2 cells (Example 15). […]

[2] = system: oHSV-1 (G207) in BV2 cells; test: G207 replication in BV2 cells with chemical inhibitors, plaque forming assay; assay type: cell-based, HSV-1
Procedure: (§2) FIG. 12A contains bar graphs showing the results of BV2 cells that were pre-treated with indicated chemical compounds for 1-2 hours and then infected with oHSV-1 at an MOI of 1. Viruses were harvested after 48 hours of oHSV-1 (G207) and indicated chemical inhibitor treatment.
as §2, with “12F is a” for “12A contains”, “graph” for “graphs”, “treatment. After 48 hours of treatment with oHSV-1 (G207) and C16, viruses were harvested and titrated by plaque forming assay on vero cells.” for “treatment.”
as §1
The effects of a PKR inhibitor (C16), a NFkappaB inhibitor (Bay11), and an iNOS inhibitor (aminoguanidine hydrochloride) were tested on G207 replication in BV2 cells (Example 15). […] To verify that C16-mediated viral gene transcriptional augmentation is not due to deletions in ICP34.5 and/or ICP6 in G207, the effect of C16 on wild type (KOS) and ICP6 mutated (HrR3) HSV-1 infected BV2 cells was also examined. […] Finally, whether C16 can overcome this microglia-mediated suppression of viral replication in glioma cells was examined.

STAT3 [3] = biological target: T1, STAT3 (Homo sapiens, UniProt P40763); assay type: cell-based
T1 construct: Extracted protein was then subjected to western blot assay; endogenous in cells; host or cells: U87 cells, with or without HrR3 infection
Procedure: (FIG. 5A) U87 cells were treated with HrR3 at a MOI of 5 and indicated concentration of nifuroxazide for 6 hours. Extracted protein was then subjected to western blot assay. (FIG. 5B) U87 cells were treated with indicated concentration of HrR3 or nifuroxazide or stattic or in combination for 72 hours. Cytotoxicity was measured by MTT assay. (FIG. 5C) Relative mRNA level (2^−ΔΔCT) is shown. Data are presented as mean SD, *P<0.05 vs corresponding vehicle treatment.
(§3) FIG. 19A and FIG. 19B, U87 cells (A) or CT26 cells (B) were treated with the indicated concentrations of HrR3 or NF or a combination. Total protein was extracted after 24 hours and subjected to western blot analysis. Band intensity was measured using Image J software and normalized to β-actin. Samples were run in triplicate and data are as means±S.E. Statistically significant differences are indicated by P<0.05 or P<0.01. FIG. 19C, Mice subcutaneously bearing U87 tumors were intratumorally injected with a single dose of HrR3 virus (1×10^6 PFU) and/or peritoneally injected doses of NF as indicated. Tumors were harvested on day 10 post treatment and total protein was extracted from a mouse of each treatment group and subjected to western blot analysis in triplicate. Results are reported as means±S.E.
Expression of key regulator of the Type1 interferon signaling, STAT1 and STAT3, was determined in nifuroxazide treated oHSV-1 infected U87 cells.
(§4) NF is a known inhibitor of STAT1 and STAT3. To evaluate the underlying molecular mechanism of the anti-tumour effect of the NF and oHSV-1 combination, the STAT1 and STAT3 status in U87 cells (FIG. 19A) and CT26 cells (FIG. 19B) cells was determined after an overnight treatment with NF and oncolytic viruses.

STAT3 [4] = biological target: T2, STAT3 (Mus musculus, UniProt P42227); test: Western blot of STAT3 phosphorylation in CT26 cells; assay type: cell-based; settings: 24 hours
T2 construct: Total protein was extracted after 24 hours and subjected to western blot analysis; endogenous in cells; host or cells: CT26 cells, with or without HrR3 infection
Procedure: as §3, §4

BTUC cells = test: MTT cytotoxicity assay, BTUC cells; assay type: cell-based; settings: 72 hours, read-out: Inhibitory concentration 50% (IC50)
Procedure: FIGS. 1A-1B are graphs that show an anti-tumor effect of nifuroxazide. (FIG. 1A) Cells were treated with indicated concentration of nifuroxazide for 72 hours. Cytotoxicity was measured by using MTT assay. (FIG. 1B) Subcutaneously U87 tumor bearing mice were peritoneally injected with indicated doses of nifuroxazide. Tumor size was measured using calipers at day 7 post nifuroxazide treatment.
In this example, the antitumor effect of nifuroxazide is evaluated in different tumor cells. Cells were treated with nifuroxazide for 72 hours (FIG. 1A). […] To verify the anti-tumor efficacy of nifuroxazide in vivo, animals with subcutaneous U87 tumor implants were injected in the peritoneum with vehicle, 1 mg/kg nifuroxazide and 50 mg/kg nifuroxazide. […] Tumor volume was reduced around 25% and 60% after 7 days treatment with 1 mg/kg nifuroxazide and 50 mg/kg nifuroxazide respectively (FIG. 1B).
Cells were seeded in a 96-well plate at a density of 1×104 (U87). After overnight incubation, cells were treated with only vehicle or indicated MOI of virus or indicated concentration of drugs or reagents. After 2 to 3 days of treatment cell viability was measured by MTT assay (Sigma, Canada) according to the manufacturer's instruction. […] After overnight incubation with lysis buffer, cell viability was measured at 595 nm using a plate reader (Envision 2103 Multilabel reader, Perkin Elmer).

T1 sequence (P40763 whole entry): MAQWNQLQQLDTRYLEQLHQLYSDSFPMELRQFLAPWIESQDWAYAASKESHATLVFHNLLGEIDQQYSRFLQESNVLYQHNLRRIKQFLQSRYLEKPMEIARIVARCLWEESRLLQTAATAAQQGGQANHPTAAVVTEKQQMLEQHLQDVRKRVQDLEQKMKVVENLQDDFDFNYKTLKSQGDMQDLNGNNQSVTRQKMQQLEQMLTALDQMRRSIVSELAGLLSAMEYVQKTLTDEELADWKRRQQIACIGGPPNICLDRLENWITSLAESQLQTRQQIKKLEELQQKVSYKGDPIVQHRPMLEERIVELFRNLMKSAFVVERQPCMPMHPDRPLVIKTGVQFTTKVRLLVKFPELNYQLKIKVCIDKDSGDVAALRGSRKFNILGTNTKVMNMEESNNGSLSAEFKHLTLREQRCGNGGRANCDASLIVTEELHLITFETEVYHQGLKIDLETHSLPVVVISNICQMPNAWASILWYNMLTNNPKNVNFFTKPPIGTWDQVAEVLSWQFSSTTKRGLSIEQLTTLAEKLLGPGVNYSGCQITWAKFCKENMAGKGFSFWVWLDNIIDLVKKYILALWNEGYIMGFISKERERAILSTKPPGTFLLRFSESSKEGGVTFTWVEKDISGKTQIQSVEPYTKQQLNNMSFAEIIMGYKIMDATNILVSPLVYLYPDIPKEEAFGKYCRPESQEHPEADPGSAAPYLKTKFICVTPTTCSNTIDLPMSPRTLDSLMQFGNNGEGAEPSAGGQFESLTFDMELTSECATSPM
T2 sequence (P42227 whole entry): as the sequence (P40763 whole entry) above, with E760D counted along it

Row | SMILES | G207 viral replication increased [1] [%] | enhanced the replication ([2]; 1 μM of C16, G207 MOI of 1, 48 hours) [times] | enhanced the replication ([2]; 10 μM of C16, G207 MOI of 1, 48 hours) [times] | HrR3 induced upregulation of STAT3 phosphorylation (STAT3 [3]; 24 hours) | STAT3 phosphorylation (STAT3 [3]; HrR3 MOI of 5, 6 hours) | phosphorylation of STAT3 (STAT3 [3]; NF alone, 24 hours) | HrR3 induced upregulation of STAT3 phosphorylation (STAT3 [4]) | phosphorylation of STAT3 (STAT3 [4]; NF alone) | IC50 (BTUC cells) [µM]
1 | O=C1Nc2ccc3ncsc3c2/C1=C/c1c[nH]cn1 [C16, 6,8-Dihydro-8-(1H-imidazol-5-ylmethylene)-7H-pyrrolo[2,3-g]benzothiazol-7-one] | 33 | 9 | 8 |  |  |  |  |  | 
2 | O=C(N/N=C/c1ccc([N+](=O)[O-])o1)c1ccc(O)cc1 [nifuroxazide, Benzoic acid, 4-hydroxy-, [(5-nitro-2-furanyl)metylene]hydrazide] |  |  |  | effectively suppressed | dose dependent STAT1 and STAT3 phosphorylation reduction | dose dependent inhibition | effectively suppressed | dose dependent inhibition | ~15
